How the values were obtained:
acetylated histone H4 = test: Histone H4 acetylation in keratinocytes (immunofluorescence, Western blot); assay type: cell-based, human; details: HDACi in the presence of 1,25D3
Experimental: Panel a; Immunofluorescence staining of acetylated histone H4 protein in NHEK treated with HDACi in the presence or absence of 1,25D3. […] Panel b: Western blot of acetylated histone 4 from keratinocytes treated with the HDACi butyrate or TLR agonists. […] Bar=30 μM.
The abundance of acetylated histone was directly measured to confirm the inhibitory effects of butyrate and TSA on HDACs. […] To determine if changes in histone acetylation occur upon stimulation of keratinocytes with TLR ligands NHEK were stimulated with different TLR ligands and histone acetylation was assessed.

cathelicidin [1] = test: qPCR of cathelicidin mRNA in cultured keratinocytes; assay type: cell-based, human; details: for increase of cathelicidin mRNA: 24 hours
Experimental: Cell culture and stimuli. Human keratinocytes were grown in serum-free EpiLife® cell culture media (Cascade Biologics; Portland, Oreg.) containing 0.06 mM Ca2+ and 1× EpiLife® defined growth supplement (EDGS) at 37° C. under standard tissue culture conditions. Stock cultures were maintained for up to five passages in this media with the addition of 50 U/mL penicillin and 50 μg/mL streptomycin. HaCaT keratinocytes were cultured in DMEM (Sigma, St. Louis, Mo.) with 10% FCS. Cells at 50-70% confluence were stimulated in fresh medium after preincubation with 1,25(OH)2 vitamin D3 (1,25D3; 0.1-100 nM, 4-24 h; Sigma). Alternatively, NHEK were stimulated in the presence of 1,25D3 (0.1-100 nM). Stimuli included TLR2,6 ligands Malp-2 (0.001-0.5 μg/ml; Alexis Biochemicals, Carlsbad, Calif.), FSL-1 (1-2 μg/ml, Invivogen, San Diego, Calif.) and zymosan (50 μg/ml; Invivogen), as well as flagellin (50 ng/ml; Alexis), LPS (1 μg/ml; Sigma), lipoteichoic acid (LTA; 10 μg/ml; Sigma), 19 kDA lipopeptide (10 μg/ml, a kind gift from S. Krutzik, Division of Dermatology, UCLA), CpG DNA (10 μg/ml; Sigma), Ca2+ (1.7 mM), LPS (1 μg/ml; Sigma), TNFα (20 ng/ml; Chemicon Temecula, Calif.) and TGFβ1 (0.1-1 μg/ml; R&D Systems, Minneapolis, Minn.). A TLR2 blocking antibody (αTLR2; clone TL2.1, 5 μg/ml, eBioscience, San Diego, Calif.) was utilized to investigate the role of TLR2 signaling. Furthermore, keratinocytes were pretreated with a vitamin D receptor antagonist (VDR-antagonist ZK159222 Schering AG; 10^-7M) or the CYP inhibitor itraconazole (ITRA; 10^-7M) before stimulation with TGFβ in the presence of 25OH vitamin D3 (25D3, 10 nM, Sigma).
(§1) Real-time RT-PCR (qPCR). RNA was extracted from cells, epidermal constructs or tissue using Trizol® and 1 μg RNA was reverse transcribed using iScript® (BioRad, Hercules, Calif.). Expression of cathelicidin and GAPDH was analysed by real-time RT-PCR. Predeveloped Taqman® assay probes (ABI, Foster City, Calif.) were used for the analyses of the expression of CYP24A1 (24-hydroxylase), CYP27B1 (1α-hydroxylase), CD14, CD36, TLR1, TLR2, TLR4, TLR6 and murine CD14. All analyses were performed in triplicate from 2-5 independent experiments in an ABI Prism® 7000 Sequence Detection System. Fold induction relative to the vehicle treated control in in vitro experiments was calculated using the comparative Ct method, where ΔΔCt is ΔCt(stimulant)-ΔCt(vehicle), ΔCt is Ct(gene)-Ct(GAPDH) and Ct is the cycle at which an arbitrary detection threshold is crossed. For quantification of transcript abundance in tissue samples target gene expression was normalized to GAPDH and compared to non-treated or non-injured skin.

TLR2 = test: qPCR in differentiated epidermal constructs; assay type: cell-based, human; details: 1,25D3 100 nM
Experimental: (§2) Organotypic culture. Epiderm™ human skin-like tissue constructs were obtained from MatTek (Ashland, Mass.) and cultured according to manufacturer's instructions. Skin constructs were cultured in maintenance media (EPI-100-MM, MatTek) and stimulated with Malp-2 (0.1 μg/ml) for 24 hours in the presence of 1,25D3 (100 nM). Skin constructs were cut after stimulation and transferred to Trizol® (Invitrogen, Carlsbad, Calif.) for RNA extraction or immediately frozen in Tissue-Tek® (Sakura, Torrance, Calif.) for immunostaining.
as §1, with “Predeveloped Taqman® assay probes (ABI, Foster City, Calif.) were used for the analyses of the expression of CYP24A1 (24-hydroxylase), CYP27B1 (1α-hydroxylase), CD14, CD36, TLR1, TLR2, TLR4, TLR6 and murine CD14. All analyses were performed in triplicate from 2-5 independent experiments in an ABI Prism® 7000 Sequence Detection System.” left out

CD14 = test: qPCR in differentiated epidermal constructs; assay type: cell-based, human; details: 1,25D3 100 nM
Experimental: as §2
as §1, with “Predeveloped Taqman® assay probes (ABI, Foster City, Calif.) were used for the analyses of the expression of CYP24A1 (24-hydroxylase), CYP27B1 (1α-hydroxylase), CD14, CD36, TLR1, TLR2, TLR4, TLR6 and murine CD14. All analyses were performed in triplicate from 2-5 independent experiments in an ABI Prism® 7000 Sequence Detection System.” left out

cathelicidin [2] = test: Cathelicidin protein immunostaining in NHEK; assay type: cell-based, human; details: butyrate (2 mM) and 1,25D3 (10^−8M), 24 hours
Experimental: Panel a: NHEKs were stimulated with 1,25D3 (10^−9-10^−7 M) in the presence of the HDAC inhibitor butyrate (BUT; 2 mM) for 24 hours. mRNA abundance was determined by real-time qPCR for cathelicidin and glyceraldehyde-3-phosphate dehydrogenase and normalized to vehicle-treated controls. […] Data shown are means (7SD) of the results from a single stimulation experiment performed in triplicates and are representative of at least three independent experiments (**P<0.01; ***P<0.001; two-way analysis of variance). Panel b: The HDAC inhibitor TSA (200 ng ml^−1) induces cathelicidin in the presence of 1,25D3 (10^−8M). Expression of cathelicidin is dependent on a functional VDR, as pretreatment with the VDR antagonist ZK159222 (10^−7 M) inhibits induction of cathelicidin with BUT (2 mM) in the presence of 1,25D3 (10^−8 M) after 24 hours. Expression of cathelicidin was determined by qPCR as described in Panel a. (*P<0.05; Student's t-test). […] Cells were stained with a polyclonal anti-LL-37 antibody (followed by an FITC-coupled secondary antibody) and nuclei detected with 4,6-diamidino-2-phenylindole (Bar=30 μM). […] NHEKs were stimulated with 1,25D3 (10^−8M) in combination with the HDAC inhibitor BUT (2 mM) for 24 hours, cells harvested and cell lysates co-incubated with S. aureus DmprF, and bacterial growth monitored over time to determine antimicrobial activity. […]

CYP24A1 = test: qPCR of CYP24A1 mRNA in cultured keratinocytes; assay type: cell-based, human; details: 1,25D3 10^−8M, 24 hours
Experimental: Cell culture and stimuli. Human keratinocytes were grown in serum-free EpiLife® cell culture media (Cascade Biologics; Portland, Oreg.) containing 0.06 mM Ca2+ and 1× EpiLife® defined growth supplement (EDGS) at 37° C. under standard tissue culture conditions. Stock cultures were maintained for up to five passages in this media with the addition of 50 U/mL penicillin and 50 μg/mL streptomycin. HaCaT keratinocytes were cultured in DMEM (Sigma, St. Louis, Mo.) with 10% FCS. Cells at 50-70% confluence were stimulated in fresh medium after preincubation with 1,25(OH)2 vitamin D3 (1,25D3; 0.1-100 nM, 4-24 h; Sigma). Alternatively, NHEK were stimulated in the presence of 1,25D3 (0.1-100 nM). […]
Real-time RT-PCR (qPCR). […] Expression of cathelicidin and GAPDH was analysed by real-time RT-PCR. […] Fold induction relative to the vehicle treated control in in vitro experiments was calculated using the comparative Ct method, where ΔΔCt is ΔCt(stimulant)-ΔCt(vehicle), ΔCt is Ct(gene)-Ct(GAPDH) and Ct is the cycle at which an arbitrary detection threshold is crossed. For quantification of transcript abundance in tissue samples target gene expression was normalized to GAPDH and compared to non-treated or non-injured skin.

S. aureus DmprF = test: Antimicrobial activity of keratinocyte lysates (bacterial growth, OD600); assay type: cell-based, Staphylococcus aureus
Experimental: Panel a: NHEKs were stimulated with 1,25D3 (10^−9-10^−7 M) in the presence of the HDAC inhibitor butyrate (BUT; 2 mM) for 24 hours. mRNA abundance was determined by real-time qPCR for cathelicidin and glyceraldehyde-3-phosphate dehydrogenase and normalized to vehicle-treated controls. […] Data shown are means (7SD) of the results from a single stimulation experiment performed in triplicates and are representative of at least three independent experiments (**P<0.01; ***P<0.001; two-way analysis of variance). Panel b: The HDAC inhibitor TSA (200 ng ml^−1) induces cathelicidin in the presence of 1,25D3 (10^−8M). Expression of cathelicidin is dependent on a functional VDR, as pretreatment with the VDR antagonist ZK159222 (10^−7 M) inhibits induction of cathelicidin with BUT (2 mM) in the presence of 1,25D3 (10^−8 M) after 24 hours. Expression of cathelicidin was determined by qPCR as described in Panel a. (*P<0.05; Student's t-test). Panel c: Increased transcript correlates with enhanced cathelicidin protein expression after HDAC inhibitor and 1,25D3 stimulation. NHEKs grown on chamber slides were stimulated with the vehicle, 1,25D3 (10^−8M), BUT (2 mM), or the combination for 24 hours. Cells were stained with a polyclonal anti-LL-37 antibody (followed by an FITC-coupled secondary antibody) and nuclei detected with 4,6-diamidino-2-phenylindole (Bar=30 μM). […] NHEKs were stimulated with 1,25D3 (10^−8M) in combination with the HDAC inhibitor BUT (2 mM) for 24 hours, cells harvested and cell lysates co-incubated with S. aureus DmprF, and bacterial growth monitored over time to determine antimicrobial activity. Media not containing cell lysates or containing cell lysates from unstimulated cells were used as controls.

C=C1/C(=C\C=C2/CCC[C@]3(C)[C@@H]([C@H](C)CCCC(C)(C)O)CC[C@@H]23)C[C@@H](O)C[C@@H]1O [1,25D3, 1,25(OH)2 vitamin D3]
acetylation of histone H4 (acetylated histone H4): further increased
increase of cathelicidin expression over cells without 1,25D3 (cathelicidin [1]; 1,25D3 0.1 nM, then Malp-2, dose dependent): up to 60 fold
increase of cathelicidin mRNA (cathelicidin [1]; 10^−7 M 1,25D3 in the absence of butyrate): about 75 fold
increase of cathelicidin mRNA (cathelicidin [1]; 10^−7 M 1,25D3 in the presence of butyrate (2 mM)): over 200 fold
TLR2 transcript abundance (TLR2): show an increase
CD14 transcript abundance (CD14): show an increase
cathelicidin peptide expression (immunostaining) (cathelicidin [2]): increase in cathelicidin peptide expression
CYP24A1 transcript abundance (CYP24A1): strongly upregulated
suppression of S. aureus growth by protein extracts of treated cells (S. aureus DmprF; cells treated with 1,25D3 (10^−8M) and butyrate (2 mM), 24 hours): maximal ability to suppress the growth
antimicrobial activity of the agents themselves (S. aureus DmprF; without cell lysate): did not show antimicrobial activity
